ChEMBL document CHEMBL1132385 (J Med Chem, 1999)

Molecular target: Neuronal acetylcholine receptor
Assay: Evaluated for its binding affinity towards Nicotinic acetylcholine receptor in rat brain homogenate
Format: tissue-based

SMILES | Ki [µM]
CN(C)CCC(O)c1ccccc1 (centres undefined) | > 10
CN1CCCCC1CCc1ccccc1 (centres undefined) | 2.49
CN(CCC(=O)c1ccccc1)CCC(=O)c1ccccc1 | > 10
CN1[C@@H](CCc2ccccc2)CCC[C@H]1C[C@H](O)c1ccccc1 | 0.235
CN1[C@H](CCc2ccccc2)CCC[C@@H]1CC(=O)c1ccccc1 | 0.11
CN(CCCc1ccccc1)CCCc1ccccc1 | > 10
CN1[C@@H](C[C@@H](O)c2ccccc2)CCC[C@H]1C[C@H](O)c1ccccc1 | 0.3
CN1CCCC[C@H]1C[C@H](O)c1ccccc1 | > 10
CN1[C@@H](CC(=O)c2ccccc2)CCC[C@H]1CC(=O)c1ccccc1 | 7.8
CN1[C@@H](CC(=O)c2ccccc2)CCC[C@H]1C[C@H](Cl)c1ccccc1 | 0.005
CN1[C@@H](CC(=O)c2ccccc2)CCC[C@H]1/C=C/c1ccccc1 | 1.08
C[N+]1(C)[C@@H](CC(=O)c2ccccc2)CCC[C@H]1C[C@H](O)c1ccccc1 | 2.03
CN1[C@H](CCc2ccccc2)CCC[C@@H]1C[C@@H](O)c1ccccc1 [8R-hydroxylobelane] | 0.34
CN1[C@@H](CCc2ccccc2)CCC[C@H]1CCc1ccccc1 [LOBELANE] | > 10
